Experimental data taken from PMC11897524 (Frontiers in Pharmacology, 2025).

Experiments:
[1] = test system: CAKI-2 xenograft tumors; experiment: CAKI-2 cell-derived xenograft model; assay type: in vivo, BALB/c nude mice; details: 10 mg/kg intraperitoneally every 12 h, nude mice
Experimental: To further investigate the in vivo effects of BST-4, 6–8 weeks male BALB/c nude mice were obtained by Changzhou Cavens Experimental Animal Co., Ltd. (Changzhou, China). The mice were acclimatized to the laboratory environment for a week before the experiment. The housing conditions were maintained at a temperature of 22°C ± 2°C, a relative humidity of 50%–60%, and a 12-h light/dark cycle. 0.1 mL of CAKI-2cell suspension (1 × 10⁶ cells) was subcutaneously injected into the right flank of each mouse. […] The vehicle group was injected with a vehicle solution consisting of 5% DMSO and PBS. The tumor volume of mice was measured every 2 days and calculated according to the formula: (c × c × d)/2, where c and d represent the minimum diameter and maximum diameter, respectively. All animal experiments were performed and approved by the Ethics Committee of China Pharmaceutical University.

[2] = molecular target: T1, STAT5b (Homo sapiens, UniProt P51692); experiment: Binding affinity to BET and STAT family members
[3] = molecular target: BRDT (Homo sapiens, UniProt Q58F21); experiment: Inhibitory effect on BET and STAT family members; assay type: binding
Text: (§1) TABLE 4 The inhibitory effect of BST-4 on other members of the BET and STAT families. | column: IC50 (μM)

[4] = molecular target: STAT5a (Homo sapiens, UniProt P42229); experiment: Inhibitory effect on BET and STAT family members; assay type: binding
Text: as §1

[5] = molecular target: STAT4 (Homo sapiens, UniProt Q14765); experiment: Inhibitory effect on BET and STAT family members; assay type: binding
Text: as §1

[6] = molecular target: STAT2 (Homo sapiens, UniProt P52630); experiment: Inhibitory effect on BET and STAT family members; assay type: binding
Text: as §1

[7] = molecular target: T1, STAT5b; experiment: Inhibitory effect on BET and STAT family members; assay type: binding
Text: as §1

[8] = molecular target: BRD3 (Homo sapiens, UniProt Q15059); experiment: Inhibitory effect on BET and STAT family members; assay type: binding
Text: as §1

[9] = molecular target: BRD2 (Homo sapiens, UniProt P25440); experiment: Inhibitory effect on BET and STAT family members; assay type: binding
Text: as §1

[10] = molecular target: STAT1 (Homo sapiens, UniProt P42224); experiment: Inhibitory effect on BET and STAT family members; assay type: binding
Text: as §1

T1 sequence (P51692 whole entry): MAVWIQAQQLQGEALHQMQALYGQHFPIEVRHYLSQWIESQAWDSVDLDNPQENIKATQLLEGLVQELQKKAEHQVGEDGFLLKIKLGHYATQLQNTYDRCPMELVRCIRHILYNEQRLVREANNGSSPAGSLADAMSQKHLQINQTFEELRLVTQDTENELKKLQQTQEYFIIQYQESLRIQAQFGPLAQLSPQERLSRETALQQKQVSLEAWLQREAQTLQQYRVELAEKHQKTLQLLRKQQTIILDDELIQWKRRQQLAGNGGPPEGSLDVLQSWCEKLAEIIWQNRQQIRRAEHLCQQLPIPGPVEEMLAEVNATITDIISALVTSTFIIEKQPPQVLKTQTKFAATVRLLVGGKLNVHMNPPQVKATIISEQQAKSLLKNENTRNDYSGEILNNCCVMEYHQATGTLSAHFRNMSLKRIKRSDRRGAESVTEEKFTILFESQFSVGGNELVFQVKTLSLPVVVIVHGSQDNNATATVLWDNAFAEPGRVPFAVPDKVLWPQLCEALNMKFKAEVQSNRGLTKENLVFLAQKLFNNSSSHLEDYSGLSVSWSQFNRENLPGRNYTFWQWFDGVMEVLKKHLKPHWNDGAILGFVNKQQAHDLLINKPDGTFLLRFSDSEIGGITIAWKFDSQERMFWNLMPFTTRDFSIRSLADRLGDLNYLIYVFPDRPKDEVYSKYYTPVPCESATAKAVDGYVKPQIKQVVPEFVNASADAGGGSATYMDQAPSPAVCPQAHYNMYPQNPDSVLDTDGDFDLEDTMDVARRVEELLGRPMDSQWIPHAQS
Sequence of BRD2 (P25440 whole entry): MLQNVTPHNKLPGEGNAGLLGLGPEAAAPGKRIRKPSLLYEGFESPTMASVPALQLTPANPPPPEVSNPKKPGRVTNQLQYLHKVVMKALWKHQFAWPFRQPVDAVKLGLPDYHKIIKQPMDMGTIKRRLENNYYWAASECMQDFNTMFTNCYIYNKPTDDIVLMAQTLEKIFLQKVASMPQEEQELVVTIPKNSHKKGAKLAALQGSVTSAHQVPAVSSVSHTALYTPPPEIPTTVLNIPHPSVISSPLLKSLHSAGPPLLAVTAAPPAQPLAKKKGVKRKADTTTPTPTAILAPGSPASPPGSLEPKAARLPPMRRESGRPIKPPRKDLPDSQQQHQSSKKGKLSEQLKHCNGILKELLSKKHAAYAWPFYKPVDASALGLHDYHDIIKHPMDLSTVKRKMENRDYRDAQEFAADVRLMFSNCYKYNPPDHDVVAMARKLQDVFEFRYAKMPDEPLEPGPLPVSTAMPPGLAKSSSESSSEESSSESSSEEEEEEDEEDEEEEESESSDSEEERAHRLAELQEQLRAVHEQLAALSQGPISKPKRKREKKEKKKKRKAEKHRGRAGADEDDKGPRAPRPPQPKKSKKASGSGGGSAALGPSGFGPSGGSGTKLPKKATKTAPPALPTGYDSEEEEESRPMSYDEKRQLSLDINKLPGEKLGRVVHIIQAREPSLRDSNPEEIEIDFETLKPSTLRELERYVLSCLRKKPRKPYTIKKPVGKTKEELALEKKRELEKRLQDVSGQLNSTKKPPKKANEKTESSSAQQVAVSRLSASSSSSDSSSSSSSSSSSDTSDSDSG
Sequence of BRD3 (Q15059 whole entry): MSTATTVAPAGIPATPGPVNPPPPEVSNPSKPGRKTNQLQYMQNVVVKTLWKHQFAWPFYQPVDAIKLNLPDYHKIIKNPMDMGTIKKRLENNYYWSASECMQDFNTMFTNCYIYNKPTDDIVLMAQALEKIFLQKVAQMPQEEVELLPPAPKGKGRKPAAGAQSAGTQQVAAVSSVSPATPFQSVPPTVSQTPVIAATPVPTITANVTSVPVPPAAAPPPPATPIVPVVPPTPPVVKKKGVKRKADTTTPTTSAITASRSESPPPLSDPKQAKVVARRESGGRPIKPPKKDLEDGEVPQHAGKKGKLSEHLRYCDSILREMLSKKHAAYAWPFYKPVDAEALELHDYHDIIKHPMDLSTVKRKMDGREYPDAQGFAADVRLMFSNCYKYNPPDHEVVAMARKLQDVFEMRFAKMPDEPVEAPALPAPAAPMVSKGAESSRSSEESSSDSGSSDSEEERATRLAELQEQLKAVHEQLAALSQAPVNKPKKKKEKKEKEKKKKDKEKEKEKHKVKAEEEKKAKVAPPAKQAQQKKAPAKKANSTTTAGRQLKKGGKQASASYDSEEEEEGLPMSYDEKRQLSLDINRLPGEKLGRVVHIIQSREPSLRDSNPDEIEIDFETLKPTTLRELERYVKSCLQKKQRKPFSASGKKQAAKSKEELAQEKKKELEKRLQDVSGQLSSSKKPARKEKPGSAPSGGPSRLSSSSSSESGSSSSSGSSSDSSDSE
Sequence of STAT2 (P52630 whole entry): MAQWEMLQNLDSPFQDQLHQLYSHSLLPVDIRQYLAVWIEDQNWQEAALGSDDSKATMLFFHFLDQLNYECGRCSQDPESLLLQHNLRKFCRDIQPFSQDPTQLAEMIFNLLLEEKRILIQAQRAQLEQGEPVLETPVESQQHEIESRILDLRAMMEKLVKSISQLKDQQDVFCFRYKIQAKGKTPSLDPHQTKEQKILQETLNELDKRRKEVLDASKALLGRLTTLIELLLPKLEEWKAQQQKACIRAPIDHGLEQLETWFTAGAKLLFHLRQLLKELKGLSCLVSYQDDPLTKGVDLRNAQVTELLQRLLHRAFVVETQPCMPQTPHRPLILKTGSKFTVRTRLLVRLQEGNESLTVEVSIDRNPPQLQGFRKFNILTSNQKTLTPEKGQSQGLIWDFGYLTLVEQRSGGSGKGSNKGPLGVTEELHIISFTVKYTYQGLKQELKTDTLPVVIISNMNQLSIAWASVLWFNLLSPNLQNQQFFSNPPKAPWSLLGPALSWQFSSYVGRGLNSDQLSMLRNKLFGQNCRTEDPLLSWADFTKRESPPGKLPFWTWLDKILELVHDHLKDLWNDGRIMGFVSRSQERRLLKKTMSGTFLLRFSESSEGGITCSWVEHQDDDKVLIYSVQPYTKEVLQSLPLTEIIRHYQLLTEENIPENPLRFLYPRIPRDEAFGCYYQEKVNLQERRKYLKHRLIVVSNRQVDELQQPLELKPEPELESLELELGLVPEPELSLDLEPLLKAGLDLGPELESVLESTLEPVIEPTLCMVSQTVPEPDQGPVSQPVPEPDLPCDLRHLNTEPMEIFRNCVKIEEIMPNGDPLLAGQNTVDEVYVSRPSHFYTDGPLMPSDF
Sequence of STAT5a (P42229 whole entry): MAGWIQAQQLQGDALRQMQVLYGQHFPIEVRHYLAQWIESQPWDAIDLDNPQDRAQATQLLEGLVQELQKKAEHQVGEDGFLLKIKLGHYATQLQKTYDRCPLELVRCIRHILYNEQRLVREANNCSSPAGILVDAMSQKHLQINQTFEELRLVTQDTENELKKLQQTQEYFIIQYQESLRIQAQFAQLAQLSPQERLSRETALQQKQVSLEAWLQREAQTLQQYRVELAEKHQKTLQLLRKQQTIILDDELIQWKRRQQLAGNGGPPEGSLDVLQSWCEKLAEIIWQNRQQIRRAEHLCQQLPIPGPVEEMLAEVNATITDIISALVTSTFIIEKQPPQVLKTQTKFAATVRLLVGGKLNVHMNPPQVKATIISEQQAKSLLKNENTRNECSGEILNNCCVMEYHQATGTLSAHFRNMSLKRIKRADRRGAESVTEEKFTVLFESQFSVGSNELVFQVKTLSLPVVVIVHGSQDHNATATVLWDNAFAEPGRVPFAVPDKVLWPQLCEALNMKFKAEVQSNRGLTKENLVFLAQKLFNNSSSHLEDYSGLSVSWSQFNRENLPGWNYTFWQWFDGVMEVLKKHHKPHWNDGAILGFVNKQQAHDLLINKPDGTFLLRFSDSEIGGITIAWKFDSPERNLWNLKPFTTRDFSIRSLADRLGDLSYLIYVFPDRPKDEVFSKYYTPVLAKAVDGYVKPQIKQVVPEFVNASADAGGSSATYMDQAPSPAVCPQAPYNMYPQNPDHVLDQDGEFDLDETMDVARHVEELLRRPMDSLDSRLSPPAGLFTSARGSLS
Sequence of STAT4 (Q14765 whole entry): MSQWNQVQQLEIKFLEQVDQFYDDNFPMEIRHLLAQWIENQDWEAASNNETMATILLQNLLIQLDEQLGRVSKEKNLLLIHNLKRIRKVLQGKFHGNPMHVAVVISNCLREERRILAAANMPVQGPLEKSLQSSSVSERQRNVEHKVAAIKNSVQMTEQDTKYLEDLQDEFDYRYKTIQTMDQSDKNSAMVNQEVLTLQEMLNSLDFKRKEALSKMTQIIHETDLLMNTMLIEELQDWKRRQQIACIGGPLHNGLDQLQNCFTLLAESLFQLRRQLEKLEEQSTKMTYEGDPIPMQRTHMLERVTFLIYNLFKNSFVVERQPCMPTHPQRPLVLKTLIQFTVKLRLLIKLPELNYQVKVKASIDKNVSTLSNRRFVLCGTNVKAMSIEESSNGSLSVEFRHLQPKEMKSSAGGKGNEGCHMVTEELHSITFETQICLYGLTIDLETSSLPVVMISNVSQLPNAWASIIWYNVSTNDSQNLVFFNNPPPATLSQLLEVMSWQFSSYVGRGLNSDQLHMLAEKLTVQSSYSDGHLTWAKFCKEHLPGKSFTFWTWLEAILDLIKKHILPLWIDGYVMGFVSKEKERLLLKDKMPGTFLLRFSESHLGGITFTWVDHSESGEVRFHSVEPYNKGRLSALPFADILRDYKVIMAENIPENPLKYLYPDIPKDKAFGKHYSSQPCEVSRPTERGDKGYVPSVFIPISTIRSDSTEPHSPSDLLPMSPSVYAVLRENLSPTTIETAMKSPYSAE

Kd [2]: > 10 µM | IC50 [3]: > 10 µM | IC50 [4]: > 10 µM | IC50 [5]: > 10 µM | IC50 [6]: > 10 µM | IC50 [7]: > 10 µM | IC50 [8]: > 10 µM | IC50 [9]: > 10 µM | IC50 [10]: > 10 µM
Structure (SMILES): CCS(=O)(=O)Cc1cnc(Oc2c(F)cc(F)cc2OCCCCOc2ccc(/C=C/c3cc(OC)cc(OC)c3)cc2)c(-c2cc(C)c3c(=O)[nH]ccn23)c1 [BST-4]
tumor growth (tumor volume) in CAKI-2 xenograft [1]: significantly inhibited tumor growth
